# Results from publication PMC8838521, “Antimicrobial, Cytotoxic and Mutagenic Activity of Gemini QAS Derivatives of 1,4:3,6-Dianhydro-L-iditol” (Molecules, 2022).
# Several values for one entry are separate records, joined by “and”; a condition that tells them apart may be missing. Equal entries are not always repeated. Entries after “also recorded” stand apart in the source; their conditions may differ.
# Assays:
# [1] = test system: human keratinocytes (HaCaT cell line); test: Cytotoxicity, MTT assay; assay type: cell-based; conditions: Homo sapiens, HaCaT; MTT, 24 h incubation; read-out: HaCaT IC50
# Method: To assess the cytotoxicity of QAS (IC50), the MTT assay on 96-well polystyrene plates was performed for human keratinocytes (HaCaT, Elabscience Biotechnology Inc., Houston, Texas, USA). The assay utilizes colorimetric determination of the cell metabolic activity and the color intensity reflects the number of live cells that can be measured spectrophotometrically. The cell line was cultured in a Dulbecco’s modified Eagle Medium (Invitrogen) supplemented with 10% fetal bovine serum (Sigma Aldrich) (v/v), 100 units/mL of penicillin, 100 μg/mL of streptomycin, and 2 mM L-glutamine and was stored at 37 °C in a humidified 5% CO2 incubator. Briefly, a day after plating of 500 cells per well, a series of concentrations (0.5–200 μg/mL) of the test compounds was applied. DMSO was added to the control cells at a final concentration of 1.0% (v/v), which was related to the maximal concentration of the solvent compounds used in the experiment. After 24 h of incubation with the QAS at 37 °C (humidified 5% CO2 incubator), a medium containing 1 mg/mL of MTT (3-(4,5-dimethylthiazol-2-yl)-2,5-diphenyltetrazolium bromide) was added to the wells up to a final concentration of 0.5 mg/mL. Subsequently, the plates were incubated at 37 °C for 4 h. Then, the medium was removed by suction, and the formazan product was solubilized with DMSO. The background absorbance at 630 nm was subtracted from that at 570 nm for each well (Epoch, BioTek Instruments, Winooski, VT, USA). Six replicates were conducted for each concentration. All experiments were repeated at least twice and the resulting IC50 values were calculated with GraFit 7 software (v. 7.0, Erithacus, Berkley, CA, USA).
# [2] = test system: Candida albicans ATCC 10231; test: Antimicrobial activity, microdilution MIC, C. albicans; assay type: cell-based; conditions: Candida albicans, ATCC10231, 24 h, MIC90, 24 h, RPMI; read-out: MIC C. albicans ATCC 10231
# Method: (§1) The antimicrobial potential of the tested agents was evaluated against two reference strains of bacteria: Staphylococcus aureus ATCC 25923 and Escherichia coli K12, two reference strains of pathogenic yeasts, Candida albicans ATCC10231 and Candida glabrata DSMZ11226, as well as 20 strains of clinical isolates of S. aureus collected from patients with skin and soft tissue infections (n = 8) and strains derived from subclinical bovine mastitis milk samples (n = 12). Four of these strains, two isolated from human infections and two isolated from bovine mastitis, were classified as MRSA (Methicillin-resistant Staphylococcus aureus). All of them were mecA positive and their methicillin resistance was confirmed with the disc diffusion assay. The remaining 16 strains were MSSA (Methicillin-sensitive Staphylococcus aureus). The assays were performed using a serial, two-fold dilution method in 96-well microtiter plates under conditions recommended by the Clinical and Laboratory Standards Institute (CLSI, Pittsburgh, PA, USA). The aim of this procedure was the determination of the MIC parameter (Minimum Inhibitory Concentration)—the minimum concentration of a tested agent capable to inhibit the growth of a specified strain of microorganism. The agents were solubilized in deionized, sterile water to a final concentration of […]. Subsequently, solutions were mixed (1:1 (v/v)) with 2 × concentrated liquid medium, Mueller-Hinton Broth 2—cation adjusted (MHB2) for evaluation of antibacterial activity and RPMI in the case of evaluation of the antifungal activity. […] Subsequently, the solutions were mixed with MHB2 or RPMI medium to get the final concentration of 8.192 mg/mL (8192 µg/mL). In the next step, the serial, two-fold dilutions of the tested agents (over the range of concentrations from 8192 to 8 µg/mL for reference strains of bacteria and yeasts and from 512 to 1.0 µg/mL for clinical isolates of S. aureus) were prepared in 96-well microtitration plates in the final volume of 100 μL of the appropriate medium.
# (§2) The pure cultures of yeast strains were grown on the Sabouraud Dextrose Agar (SDA) for 18–24 h at 37 °C. Suspensions of the microorganisms were prepared by taking one loop of pure culture into sterile water and adjusting optical density to 0.1 at 660 nm and further 50-fold dilution in RPMI 1640 medium resulting in cells concentration of approximate 2 × 10^4 CFU/mL. One hundred μL of that suspension was inoculated to the wells of the microtitration plate containing appropriate dilutions of the agents. The positive growth control of each strain (both bacteria and yeasts) was performed in the wells without the tested substances. The negative control containing only the media was included in each assay. Microtiter plates were incubated at 37 °C for 24 h. Following the incubation period, determination of the MIC values of the tested agents was carried out by measuring the absorbance at 531 nm using a Victor^3 microplate reader (Perkin Elmer, Inc., Waltham, MA, USA). The lowest concentration of the agent causing inhibition of growth equal to or higher than 90% (MIC90) of growth control was taken as the MIC value. Each test was repeated three times.
# Escherichia coli K12 = test: Antimicrobial activity, microdilution MIC, E. coli; assay type: cell-based; conditions: Escherichia coli, K12, 24 h, MIC90, 24 h, MHB2; read-out: MIC E. coli K12
# Method: as §1
# The pure bacterial cultures of (both the reference and clinical strains) were grown on the Mueller-Hinton Agar (MHA) for 18–24 h at 37 °C. A small amount of the biomass of the culture of each strain of microorganisms was suspended in the sterile PBS (phosphate buffered saline, pH 7.4 at 25 °C, purchased from Sigma) solution to get an optical density OD600 = 0.13 (equal to the cells concentration approximately 1 × 10^8 CFU/mL). The obtained suspensions of the cells were next diluted 1:100 (v/v) in the MHB2 medium. One hundred µL of the cells’ suspension was finally loaded into the wells of plates prepared in advance, which contained 100 µL of two-fold dilutions of the tested agents (the final concentration of the bacterial cells in all wells was approximately 5 × 10^5 CFU/mL).
# as §2, with “times. […]” for “times.”
# [3] = Solubility observed during assays; assay type: physicochemical; conditions: for Solubility in water and DMSO: for Ames test; for Solubility in water: observed during antimicrobial assays, DMSO used for solubilisation
Compound,IC50 [1] [µg/mL],MIC [2],MIC (Escherichia coli K12),Solubility in water and DMSO [3],Solubility in water [3]
CCCCCCCC[N+](C)(C)C1COC2C1OCC2[N+](C)(C)CCCCCCCC (stereo not shown) [QAS 9],> 100,1020 µg/mL and 1410 µM,2050 µg/mL and 2820 µM,insufficient solubility in both water and DMSO,suppressed water solubility; also recorded: lower solubility in water
"CCCCCCCCCC[N+](C)(C)C1COC2C1OCC2[N+](C)(C)CCCCCCCCCC [QAS 10, N,N’-(1,4:3,6-Dianhydro-2,5-dideoxy-L-iditol-2,5-diyl)-bis(N,N-dimethyl-N-decylammonium) Ditrifluoromethanesulfonate]",12.8 ± 1.25,32 µg/mL and 40 µM,32 µg/mL and 40 µM,insufficient solubility in both water and DMSO,suppressed water solubility; also recorded: lower solubility in water
